Assay results published in patent US12643867B2, “Compositions and uses thereof” (University of Virginia Patent Foundation, priority 2017, dated 2026).

Tests used:
Assay in all cases: SILAC LC-MS ATP acyl phosphate probe competition, native kinases in HEK293T
Format in all cases: binding
[1] = target: T1, MP2K4 (Dual specificity mitogen-activated protein kinase kinase 4) (Homo sapiens, UniProt P45985); settings: site Lys2; ATP 1 mM; Ketanserin, Ritanserin 100 μM; RF001 1 mM
T1 construct: Native kinases; endogenous in cells; host or cells: HEK293T soluble proteome
T1 sequence (P45985 1-399): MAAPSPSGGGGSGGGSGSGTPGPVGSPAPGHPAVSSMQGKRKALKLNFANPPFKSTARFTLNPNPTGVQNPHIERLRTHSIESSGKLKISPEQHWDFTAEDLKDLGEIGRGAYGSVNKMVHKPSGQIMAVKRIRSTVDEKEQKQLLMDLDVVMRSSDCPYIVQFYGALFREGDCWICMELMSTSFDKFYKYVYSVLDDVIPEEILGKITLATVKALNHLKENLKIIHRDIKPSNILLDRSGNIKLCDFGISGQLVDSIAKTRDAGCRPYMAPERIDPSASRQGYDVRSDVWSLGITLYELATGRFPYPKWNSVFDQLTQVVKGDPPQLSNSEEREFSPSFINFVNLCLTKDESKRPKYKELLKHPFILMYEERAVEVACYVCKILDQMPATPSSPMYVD
Description: (§1) Proteomes were diluted to 2 mg/ml in kinase buffer. The light and heavy proteomes (0.5 mg, 250 μL total reaction volume) were pre-treated with vehicle or compound, respectively (5 μL, DMSO (light) or 50× stock in DMSO (heavy)), mixed gently, and incubated at 25° C. for 30 min. […] After incubation, matched light and heavy proteomes were transferred and mixed in a 1:1 ratio in a two-dram vial containing 4:1:3 MeOH/CHCl3/H2O (2 mL MeOH, 500 AL CHCl3, 1.5 mL H2O) for extraction of proteins to remove excess probe, quickly vortexed, and centrifuged at 1,400×g for 3 min to pellet protein. Organic and aqueous layers were removed using a Pasteur pipette, and the protein pellet was transferred to a screw-top tube in 600 μL MeOH. A second extraction was performed by adding CHCl3 (150 μL) and H2O (600 μL) to each sample, vortexed, and centrifuged at 1,400×g for 3 min to pellet protein. Organic and aqueous layers were removed by pipetting. MeOH added to pellet (600 μL) and pellets were re-suspended by sonication (3×1 sec pulse, 20% amplitude) for a final extraction. Samples were then centrifuged at 17,000×g for 5 min to pellet protein and MeOH was removed by pipetting. The pellets were re-suspended in 10 M urea/25 mM ammonium bicarbonate ([…]), brought to a final volume of 1 mL with 25 mM ammonium bicarbonate, reduced with 10 mM DTT for 15 min at 65° C. allowed to cool, and then alkylated with 40 mM iodoacetamide for 30 min at 25° C. in the dark. To desalt the samples, each was transferred to a two-dram glass vial, and to the vial 4:1:2 MeOH/CHCl3/H2O (2 mL MeOH, 500 AL CHCl3, 1 mL H2O) was added. The vials were vortexed quickly, spun at 1.400×g for 3 min to pellet protein, and aqueous and organic layers were removed using a Pasteur pipette. The resulting protein pellet was transferred to a screw-top tube in 600 μL MeOH, and then CHCl3 (150 μL) and HO (600 μL) were added to extract protein a second time. The samples were vortexed quickly, centrifuged at 1,400×g to pellet protein, and the aqueous and organic layers were removed by pipetting. Resulting protein pellet was suspended in MeOH (600 μL) via sonication (3×1 sec pulse, 20% amplitude), centrifuged at 17,000×g for 5 min to pellet protein, and MeOH removed by pipetting. Protein pellets were then re-suspended in 25 mM ammonium bicarbonate (500 μL) and digested with 7.5 μg Trypsin/Lys-C(Promega, 15 μL, 0.5 μg/μL) for 3 h at 37° C. Avidin-agarose beads (Thermo Scientific Pierce, 100 AL aliquot per sample) were washed three times by adding 10 mL DPBS, centrifuged at 1,400×g for 1 min, and decanting. This wash step was repeated for a total of 3 times. Digested protein samples were mixed with washed avidin beads (100 μL) and brought to a volume of 5.5 mL with DPBS in a 15 mL conical and rotated for 1 h to enrich samples for the covalent desthiobiotin modification. The beads were washed with 25 mM ammonium bicarbonate (3× with 10 mL, centrifuge at 1,400×g for 3 min, decant) and then H2O (3× with 10 mL, centrifuge at 1,400×g for 3 min, decant). Washed beads were then transferred to a low-bind microfuge tube, centrifuged at 1,400×g for 3 min, allowed to rest for 1 min to settle beads, and then excess H2O was removed carefully using a gel-loading pipette tip. To elute peptides, 100 μL of elution buffer (50% acetonitrile, ACN; 0.1% formic acid) was added to each sample and incubated for 3 min. Beads were spun down at 1.400×g for 3 min, allowed to rest for 1 min to settle beads, and then 75 μL of peptide-containing supernatant was removed carefully using a gel-loading pipette tip and transferred to a new low bind centrifuge tube. This step was repeated two more times with 75 μL of elution buffer and all eluent were collected into the same centrifuge tube (˜225 μL total). Peptides were dried on a speed vacuum, resulting peptide samples acidified in 5% (v/v) formic acid, and stored at −80° C. until analysis.
(§2) The peptide samples were analyzed by liquid chromatography-mass spectrometry. […]

[2] = target: T2, RAF1 (RAF proto-oncogene serine/threonine-protein kinase) (Homo sapiens, UniProt P04049); settings: site Lys2; ATP 1 mM; Ketanserin, Ritanserin 100 μM; RF001 1 mM
T2 construct: Native kinases; endogenous in cells; host or cells: HEK293T soluble proteome
Description: as §1, §2

[3] = target: T3, PI42C (Phosphatidylinositol-5-phosphate 4-kinase type-2 gamma) (Homo sapiens, UniProt Q8TBX8); settings: site C2; ATP 1 mM; Ketanserin, Ritanserin 100 μM; RF001 1 mM
T3 construct: Native kinases; endogenous in cells; host or cells: HEK293T soluble proteome
T3 sequence (Q8TBX8 1-421): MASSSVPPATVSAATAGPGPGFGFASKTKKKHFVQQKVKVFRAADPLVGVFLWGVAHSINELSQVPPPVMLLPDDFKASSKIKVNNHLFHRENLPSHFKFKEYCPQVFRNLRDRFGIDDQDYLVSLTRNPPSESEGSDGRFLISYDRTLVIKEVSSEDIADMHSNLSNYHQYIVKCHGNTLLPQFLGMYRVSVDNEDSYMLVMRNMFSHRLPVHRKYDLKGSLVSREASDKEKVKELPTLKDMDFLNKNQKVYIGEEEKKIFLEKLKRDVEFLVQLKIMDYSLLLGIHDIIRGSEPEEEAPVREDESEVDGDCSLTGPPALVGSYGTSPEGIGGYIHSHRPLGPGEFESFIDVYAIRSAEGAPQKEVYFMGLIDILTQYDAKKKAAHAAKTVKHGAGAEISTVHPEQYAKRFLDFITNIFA
Description: as §1, §2

T2 sequence (P04049 whole entry): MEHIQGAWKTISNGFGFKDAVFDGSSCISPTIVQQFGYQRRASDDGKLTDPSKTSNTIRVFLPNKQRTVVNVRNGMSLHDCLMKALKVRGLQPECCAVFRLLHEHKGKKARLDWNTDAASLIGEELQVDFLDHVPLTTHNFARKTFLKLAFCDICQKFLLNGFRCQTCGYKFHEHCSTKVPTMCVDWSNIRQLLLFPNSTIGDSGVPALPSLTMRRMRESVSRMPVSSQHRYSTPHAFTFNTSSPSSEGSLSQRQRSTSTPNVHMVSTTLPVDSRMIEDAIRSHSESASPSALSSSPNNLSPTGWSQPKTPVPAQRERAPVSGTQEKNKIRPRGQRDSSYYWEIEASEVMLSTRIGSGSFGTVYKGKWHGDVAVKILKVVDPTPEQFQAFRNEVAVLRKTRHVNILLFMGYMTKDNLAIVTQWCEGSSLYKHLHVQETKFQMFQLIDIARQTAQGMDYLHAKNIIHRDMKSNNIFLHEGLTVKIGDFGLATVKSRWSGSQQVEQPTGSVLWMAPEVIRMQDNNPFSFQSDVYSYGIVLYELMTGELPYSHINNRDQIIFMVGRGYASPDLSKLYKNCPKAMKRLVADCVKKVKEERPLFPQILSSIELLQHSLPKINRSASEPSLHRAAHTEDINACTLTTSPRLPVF

| SMILES | SILAC ratio, MP2K4 probe-modified peptide [1] | SILAC ratio, RAF1 probe-modified peptide [2] | SILAC ratio, PI42C probe-modified peptide [3] |
| --- | --- | --- | --- |
| O=C(c1ccc(F)cc1)C1CCN(CCn2c(=O)[nH]c3ccccc3c2=O)CC1 [Ketanserin] | 1.3 | 1.4 | 1.2 |
| Cc1nc2sccn2c(=O)c1CCN1CCC(=C(c2ccc(F)cc2)c2ccc(F)cc2)CC1 [Ritanserin] | 1.6 | 3.9 | 1.7 |
| Fc1ccc(C(=C2CCNCC2)c2ccc(F)cc2)cc1 [RF001, 4-(Bis(4-fluorophenyl)methylene) piperidine] | 0.9 | 2.1 | 0.8 |
